Patent US20250049776A1, “AUTOPHAGY INDUCING COMPOUNDS AND USES THEREOF, IN PARTICULAR FOR A SYSTEMIC TREATMENT OF DISEASES AND CONDITIONS” (Samsara Therapeutics Inc., priority 2021, published 2025)

Legend:
[1] = system: Mutant PNPLA3-Expressing HepG2 Cells (GFP-PNPLA3 (1148>M)); assay: Cellular model of NAFLD: gel assay for mutant PNPLA3-expressing HepG2 cells; format: cell-based; conditions: HepG2 cells transfected with GFP-PNPLA3 (1148>M), 24 hours
Protocol: Method: HepG2 cells were transfected with GFP-PNPLA3 (1148>M) overexpression plasmid using Lipofectamine LTX in DMEM media supplied with 1% Oleic Acid-BSA and were left overnight. The next day, cells were trypsinated and were seeded in a 96-well plate in DMEM media supplied with 1% Oleic Acid-BSA. After 7 hours, media was changed to standard DMEM supplied with the compound of interest. After 24 hours, cells were washed once with PBS and were lysed in RIPA buffer. Lysates were collected, centrifuged and the supernatants were mixed with Laemmli buffer (without DTT or boiling) and were loaded on a 4-20% SDS-PAGE gel. After electrophoresis, gels were directly imaged in the FITC channel to visualise the GFP signal.

[2] = system: Differentiated hepatocyte GSD1A disease model cells; assay: iPSC model of glycogen storage disease type 1A: glycogen and triglyceride quantification; format: cell-based, human; conditions: hepatocytes differentiated from GSD1A patient derived iPSCs, 10 μM
Protocol: Timetable for Treatment of Cells with the Compounds: • Day 1. Differentiated hepatocyte GSD1A disease model cells (DefiniGEN Ltd) were cultured in a collagen I coated 48-well plate. Empty wells were filled with PBS. • Day 9. The racemic mixture of compounds 170 and 171 (as a solution in DMSO) was added to the disease model cells • Day 11. Media for disease model cells was replaced with fresh media with compound. • Day 12. Cells were washed once in PBS and once in HBSS and 30 μL of NP40 Lysis buffer supplied with Phosphatase and Protease inhibitor cocktail was added to each well. Plate was immediately placed on dry ice. […]
Protein quantification: An aliquot of the lysates was used for protein quantification using BCA.
Glycogen quantification: An aliquot of the lysates was boiled at 96° C. for 5 minutes. […] Supernatant was used for Glycogen quantification using MAK016 kit (Merck), following manufacturer's instructions. […] 8 μL of Hydrolysis buffer from the kit was added to one aliquot from each sample (-HE; to quantify free glucose content of the lysate). The other sample was supplied with 8 μL of Hydrolysis buffer supplied with Hydrolysis Enzyme (+HE; to quantify free glucose+glycogen content of the lysate). After 30 minutes of incubation at room temperature, 10 μL of probe mix was added to each well and the absorbance at 570 nm was measured after 30 minutes incubation at room temperature. […]

[3] = system: Human osteosarcoma U20S cells; assay: Assay to measure lysosome and autolysosome formation (acidic vesicle formation, LysoView/LysoTracker staining); format: cell-based; conditions: U20S cells
Outline: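 U2OS cells treated with compounds in DMSO for 24 h, then stained 45 min at 37 °C with 1× LysoView 633 or 50 nM LysoTracker Deep Red, with Hoechst nuclear counterstain. Live-cell fluorescence imaging at 37 °C; acidic vesicle formation judged against DMSO-treated control.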

[4] = Cytotoxicity assay (MTT) parallel to HCMV infectivity assay; format: cell-based; conditions: human, HFF cells, read-out: HCMV TC50
Protocol: (§1) In parallel to the infectivity assays, in order to determine the cytotoxic properties of the compound, cells were seeded in 96 well plates and the following day pre-treated with the same serial dilutions of compound in 100 μl of assay media. The compound was left on the cells for the duration of the infectivity assays, after which a metabolic assay (MTT assay) was used to determine cell viability compared to a DMSO-treated control.

[5] = system: adult human dermal fibroblast cells (HDFa cells); assay: Acidic vesicle formation in adult human dermal fibroblast cells; format: cell-based; conditions: concentration of 10 μM
From the text: This is evidence for significant stimulation of autophagy by this compound under these conditions.

HCMV = assay: Infectivity assay HCMV in HFF cells; format: cell-based, Human Cytomegalovirus (HCMV); conditions: Human betaherpesvirus 5, 360 h, MOI 1, 15 days, gB staining
Protocol: (§2) Cells were seeded in 96 well plates and the following day pre-treated with a 3-fold serial dilution of compound starting from 20 μM, in 100 μL of assay media. 24 hours later, cells were infected (without removing the media) with ZIKV or HCMV at a multiplicity of infection (MOI) compatible with multiple rounds of virus replication. DMSO-treated infected and uninfected cells were included as positive and negative controls. [table]

ZIKV = assay: Infectivity assay ZIKV in SH-SY5Y cells; format: cell-based; conditions: Zika virus, MOI 5, 48 h, E staining
Protocol: as §2

SH-SY5Y = assay: Cytotoxicity assay (MTT) parallel to ZIKV infectivity assay; format: cell-based; design: key: A “—” symbol indicates no inhibition; conditions: SH-SY5Y cells, 48 h
Protocol: as §1

[6] = system: dopaminergic Tyrosine hydroxylase (TH)-positive neurons injured with MPTP; assay: Cellular model of Parkinson's disease (MPTP/MPP+ injury of primary mesencephalic neurons); format: cell-based, Rat; conditions: concentrations of 10 μM
From the text: This model (run by Neuro-Sys SAS, France) is based on a primary culture of dopaminergic Tyrosine hydroxylase (TH)-positive neurons injured with the dopaminergic neurons-specific toxin (DA-toxin) 1-methyl-4-phenyl-1,2,3,6 tetrahydropyridine (MPTP, a prodrug of MPP*) (Dauer and Przedborski, 2003). Any substances reducing DA-toxin neurotoxicity may be useful as a new therapeutic agent for the treatment or prevention of PD.
Primary culture of mesencephalic neurons: Rat dopaminergic neurons were cultured as described by Visanji et al., 2008 and Callizot et al., 2019. Briefly, pregnant female rat (Wistar) of 15 days of gestation were killed using a deep anesthesia with CO2 chamber and a cervical dislocation. The midbrains obtained from 15-day-old rat embryos (Janvier, France) were dissected under a microscope. The embryonic midbrains will be removed and placed in ice-cold medium of Leibovitz (L15) containing 2% of Penicillin-Streptomycin (PS) and 1% of bovine serum albumin (BSA). The ventral portion of the mesencephalic flexure, a region of the developing brain rich in dopaminergic neurons, was used for the cell preparations.
The midbrains were dissociated by trypsinisation for 20 min at 37° C. (solution at a final concentration of 0.05% trypsin and 0.02% EDTA). The reaction was stopped by the addition of Dulbecco's modified Eagle's medium (DMEM) containing DNAase I grade II (0.5 mg/mL) and 10% of foetal calf serum (FCS). Cells were then mechanically dissociated by 3 passages through a 10 ml pipette. Cells were then centrifuged at 180×g for 10 min at +4° C. on a layer of BSA (3.5%) in L15 medium. The supernatant was discarded and the cell pellets re-suspended in a defined culture medium consisting of Neurobasal supplemented with B27 (2%), L-glutamine (2 mM) and 2% of PS solution and 10 ng/mL of Brain-derived neurotrophic factor (BDNF) and 1 ng/mL of Glial-Derived Neurotrophic Factor (GDNF). Viable cells were counted in a Neubauer cytometer using the trypan blue exclusion test. The cells were seeded at a density of 40,000 cells/well in 96 well-plates (pre-coated with poly-L-lysine) and maintained in a humidified incubator at 37° C. in 5% CO2/95% air atmosphere. Half of the medium was changed every 2 days with fresh medium. The wells of first and last lines and columns […] (to avoid any edge effect) and were be filled with sterile water.
Test compounds and MPTP: • i) Pre-incubation. On day 6 of culture, the test compounds were dissolved in PBS or DMSO and incubated for 1 hour before the MPTP exposure. • ii) Injury. One hour after the application of test compound, MPTP was added to a final concentration of 4 μM, diluted in control medium still in presence of compounds/inhibitors for 48h. Test compounds were tested on one culture in 96-well plate (n=6 culture wells per condition).
Immunostaining: TH and α-Synuclein. 48 Hours after intoxication, the cell culture supernatant was removed, and the cells were fixed by a solution of 4% paraformaldehyde in PBS, pH=7.3 for 20 min at room temperature. The cells were washed twice in PBS, and then permeabilized. Non-specific sites were blocked with a solution of PBS containing 0.1% of saponin and 1% FCS for 15 min at room temperature. The cultures were incubated with: (a) monoclonal anti-Tyrosine Hydroxylase (TH) antibody produced in mouse at dilution of 1/10000 in PBS containing 1% FCS, 0.1% saponin, for 2 hours at room temperature, and (b) polyclonal anti-alpha synuclein (α-synuclein) antibody produced in rabbit at dilution of 1/200 in PBS containing 1% FCS, 0.1% saponin, for 2 h at room temperature.
Automatic computer analysis. For each condition, 20 pictures (representing the whole well area) were automatically taken using ImageXpress® (Molecular Devices) at 10× magnification (20 pictures, for TH and α-synuclein into TH neurons) using the same acquisition parameters. From images, analyses was directly and automatically performed by MetaXpress® (Molecular Devices).

Row | SMILES | fold increase in GFP breakdown Bafilomycin-sensitive-product signal versus an inactive control [1] [fold] | reduction of cellular glycogen compared with the DMSO-only control [2] | reduction of cellular triglycerides compared with the DMSO-only control [2] [%] | acidic vesicle formation relative to a DMSO-treated control ([3]; concentration of 10 μM, 24 hours) | increase in acidic vesicle formation ([3]; relative to DMSO-treated control (10 μM)) | CC50 at 15 days [4] [µM] | acidic vesicle formation relative to a DMSO-treated control [5] | IC50 (HCMV) [µM] | IC50 (ZIKV) [µM] | ZIKV TC50 (SH-SY5Y) | increase in the length of the neurite network of dopaminergic TH positive neurons compared to the MPP+ injury alone ([6]; 1 μM and 500 nM) [%] | increase in the number of dopaminergic TH positive neurons compared to MPP+ injury alone ([6]; 1 μM and 500 nM) [%] | decrease in α-syn area per dopaminergic TH positive neuron compared to MPP+ injury alone ([6]; 1 μM, 500 nM and 100 nM) [%]
1 | CCCN(C(=O)c1csc(-c2cnn(-c3ccccc3)c2)n1)C1CCNC1 (racemic) [racemic mixture of compounds 170 and 171] | 3.7 | over 75% | > 20 | clearly increased | at least 25% | > 75 | significantly greater acidic vesicle formation | < 10 | < 15 | — |  |  | 
2 | NC[C@H]1CCCN1C(=O)c1csc(-c2cnn(-c3ccccc3)c2)n1 [Compound 156, 1-[(2R)-1-[2-(1-phenyl-1H-pyrazol-4-yl)-1,3-thiazole-4-carbonyl]pyrrolidin-2-yl]methanamine] |  |  |  |  |  |  |  |  |  |  | > 39 | > 18 | > 13
